≈ marks a conversion by molar mass, not a printed value. Like-named read-outs stand apart in the source and are kept apart here.
Columns and labels:
[1] = tested on: NCI-H460 (human lung cancer cell line); assay: Anti-cell activity (MTT) against human tumor cell line NCI-H460; assay type: cell-based; settings: 72 h, NCI-H460, cultured three days, read-out: NCI-H460 (GI50 value, ng/mL)
Method: (§1) Three types of human tumor cell lines (all of the cells were obtained from American Type Culture Collection) were seeded on 96-well microplates as follows.
(§2) NCI-H460 (human lung cancer cell line): 5.0×10^2 cells/190 μL/well HCT-15 (P glycoprotein (P-gp) expressing human colon cancer cell line, J. Natl. Cancer Inst., 2001, 93:1234-1245): 1.0×10^3 cells/190 μL/well HCT116 (human colon cancer cell line): 1.0×10^3 cells/190 μL/well On the next day, each test compound was dissolved in 100% dimethyl sulfoxide (DMSO) at a concentration of 10 mg/mL. This solution was diluted with 0.01% Cremophor EL-PBS(−) (Cremophor EL: Sigma Chemical Co., St. Louis, Mo., USA, PBS: Invitrogen Corp., Carlsbad, Calif., USA), and 10 μL of the diluted solution was added to each well (final concentration: 100 to 0.000381 ng/mL). The cells were cultured for three days, and then […] of a 5 mg/mL solution of 3-(4,5-dimethylthiazol-2-yl)-2,5-diphenyl-2H-tetrazolium bromide (MTT, Sigma Chemical Co.) was added to each well. The cells were further cultured for 4 hours, and then the medium was removed by centrifugation. By adding 150 μL of DMSO to each well, the produced formazan product was dissolved. The absorbance of the solution was measured at 540 nm. The drug concentration suppressing cell proliferation of the drug addition group to 50% of the cell proliferation of the drug free group (GI50 value, ng/mL) was calculated, and used as an index of anti-cell activity.

[2] = tested on: HCT-15 (P glycoprotein (P-gp) expressing human colon cancer cell line); assay: Anti-cell activity (MTT) against human tumor cell line HCT-15; assay type: cell-based; settings: 72 h, HCT-15 (P-gp expressing), cultured three days, read-out: HCT-15 (GI50 value, ng/mL)
Method: as §1, §2

[3] = tested on: HCT116 (human colon cancer cell line); assay: Anti-cell activity (MTT) against human tumor cell line HCT116; assay type: cell-based; settings: HCT-116, 72 h, HCT116, cultured three days, read-out: HCT116 (GI50 value, ng/mL)
Method: as §1, §2

B16 melanoma BL6 = assay: Antitumor effect in mice subcutaneously transplanted with B16 melanoma BL6; assay type: in vivo, Mice (C57BL/6); settings: MTD/MED
Description: (§3) Mice (C57BL/6, Charles River Japan) were subcutaneously transplanted with B16 melanoma BL6 (Cancer Res., Poste, G., Fidler, I. J. et al., 1980, 40:1636; Bioorg. Med. Chem. Lett., Takeda, Y. et al., 2003, 13:185-190), or M5076 (obtained from Japanese Foundation for Cancer Research), which is a histiocytoma expressing P-gp. Four days after the transplantation in the case of B16 melanoma BL6, or 8 to 10 days after the transplantation in the case of M5076, each test compound suspended in a 0.5% aqueous solution of carboxymethylcellulose sodium, or dissolved in EtOH:Tween 80:5% glucose=5:5:90 (v/v %) was orally (po) or intravenously (iv) administered to the mice. Ten days after the administration in the case of B16 melanoma BL6, or 8 to 10 days after the administration in the case of M5076, the mice were dissected, and tumor weights were measured. The antitumor effect was calculated in accordance with the following equation.
(§4) [1−(Average tumor weight of compound administration group/average tumor weight of solvent administration group)]×100
(§5) An antitumor effect of 58% or more was considered effective (Int. J. Cancer, 1989, 43:637-44), and the maximum tolerance dose (MTD, maximum dose not causing death, mg/kg) and minimum effective dose (MED, mg/kg) showing effectiveness were obtained, respectively. The therapeutic index was calculated in accordance with the equation: MTD/MED.
(§6) ND means that the test was not performed. The effective dose range means the range of from MED to MTD.

[4] = tested on: M5076 (histiocytoma expressing P-gp); assay: Antitumor effect in mice subcutaneously transplanted with M5076; assay type: in vivo, Mice (C57BL/6); settings: for Therapeutic index: MTD/MED; for Effective dose range: range from MED to MTD, antitumor effect of 58% or more considered effective
Description: as §3, §4, §5, §6

[5] = Solubility in first and second solution for disintegration test (Japanese Pharmacopoeia); assay type: physicochemical; settings: thermodynamic from solid, 12 hours or longer
Method: Solubility of each compound was determined in the first solution for disintegration test according to Japanese Pharmacopoeia (henceforth referred to as the first solution, solution obtained by adding 7 mL of hydrochloric acid and water to 2.00 g of sodium chloride to dissolve sodium chloride and fill up the solution to 1000 mL, pH 1.2) and the second solution for disintegration test according to Japanese Pharmacopoeia (henceforth referred to as the second solution, solution obtained by adding 118 mL of 0.2 mol/L solution of sodium hydroxide to 6.80 g of potassium dihydrogenphosphate, adding water to the mixture to dissolve potassium dihydrogenphosphate and filling up the solution to 1000 mL, pH 6.8).
Each test compound was dissolved in 100% dimethyl sulfoxide (DMSO) at a concentration of 10 mM, and 50 μL of the solution was lyophilized. The lyophilized test compound was added with 250 μL of the first solution or second solution, and the mixture was stored at room temperature for 12 hours or longer under light shielding, and filtered (0.7 μm). The filtrate was taken in a volume of 90 μL, and added with 50% DMSO (90 μL) to obtain a two-fold diluted solubility sample. The two-fold dilution solubility sample was taken in a volume of 20 μL, and added with 50% DMSO (180 μL) to obtain a […] diluted solubility sample. Solubility of each test sample was determined by quantifying the test compound in the resulting diluted solubility test samples using high-performance liquid chromatography.

[6] = aqueous buffer, second solution for disintegration test, pH 6.8, room temperature, read-out: Solubility (μg/mL) pH 6.8
[7] = simulated gastric fluid, first solution for disintegration test, pH 1.2, room temperature, read-out: Solubility (μg/mL) pH 1.2

Structure (SMILES)	GI50 [1] [ng/mL]	GI50 [2] [ng/mL]	GI50 [3] [ng/mL]	Therapeutic index (B16 melanoma BL6; B16 Melanoma BL6, iv)	Therapeutic index (B16 melanoma BL6; B16 Melanoma BL6, po)	Therapeutic index ([4]; M5076, iv)	Effective dose range ([4]; M5076, iv) [mg/kg]	Therapeutic index ([4]; M5076, po)	Effective dose range ([4]; M5076, po) [mg/kg]	solubility [5, 6] [µg/mL]	solubility [5, 7] [µg/mL]
CC(=O)O[C@@]12CO[C@@H]1CC[C@@]1(C)[C@@H]3O[C@H](CN4CCC4)O[C@@H]3C3=C(C)[C@@H](OC(=O)[C@H](O)[C@@H](NC(=O)OC(C)(C)C)c4ncccc4F)C[C@@](O)([C@@H](OC(=O)c4ccccc4)[C@@H]12)C3(C)C [Example 2, (1S,2S,3R,4S,5R,8R,9S,10R,13S)-4-(Acetoxy)-9,10-[(1S)-2-(azetidino)ethylidenedioxy]-2-(benzoyloxy)-5,20-epoxy-1-hydroxytax-11-en-13-yl (2R,3S)-3-(tert-butoxycarbonylamino)-3-(3-fluoro-2-pyridyl)-2-hydroxypropionate]	0.606 (≈ 0.000678 µM)	2.31 (≈ 0.00258 µM)	0.669 (≈ 0.000748 µM)	2.9	2.9	1.0	14.7	2.0	13.7 to 28	170 (≈ 190 µM)	1100 (≈ 1230 µM)
COC1CN(C[C@@H]2O[C@@H]3C4=C(C)[C@@H](OC(=O)[C@H](O)[C@@H](NC(=O)OC(C)(C)C)c5ncccc5F)C[C@@](O)([C@@H](OC(=O)c5ccccc5)[C@H]5[C@@](C)(CC[C@H]6OC[C@]65OC(C)=O)[C@@H]3O2)C4(C)C)C1 [Example 8, (1S,2S,3R,4S,5R,8R,9S,10R,13S)-4-(Acetoxy)-2-(benzoyloxy)-5,20-epoxy-1-hydroxy-9,10-[(1S)-2-(3-methoxyazetidino)ethylidenedioxy]tax-11-en-13-yl (2R,3S)-3-(tert-butoxycarbonylamino)-3-(3-fluoro-2-pyridyl)-2-hydroxypropionate]	0.128 (≈ 0.000139 µM)	0.236 (≈ 0.000255 µM)	0.155 (≈ 0.000168 µM)	–	2.9	–	–	1.4	21.0 to 30.0	10 (≈ 10.8 µM)	600 (≈ 649 µM)
